Assay results reported in patent US20090047243A1, “COMBINATIONS FOR THE TREATMENT OF B-CELL PROLIFERATIVE DISORDERS” (priority 2007, published 2009).

Legend:
[1] = tested on: human multiple myeloma cells (MM.1R); assay: Anti-proliferation assay (ATPLite, 72 h); format: cell-based; design: key: S = lnfX·lnfY·ΣIdata(Idata−ILoewe), volume over Loewe additivity
Experimental: (§1) ANBL6 and INA-6 culture media was also supplemented with 10 ng/ml IL-6. […] MM.1S, MM.1R, OCI-ly10, Karpas 422, and SU-DHL6 cells were provided by the Dana Farber Cancer Institute. H929, RPMI-8226, GA-10, and Farage cells were from ATCC (Cat #'s CCL-155, CRL-9068, CRL-2392 and CRL-2630 respectively). MOLP-8, EJM, KSM-12-PE, and OPM2 were from DSMZ. The ANBL6 and INA-6 cell lines were provided by the M. D. Anderson Cancer Research Center. Compounds were prepared in DMSO at 1000× the highest desired concentration. Master plates were generated consisting of serially diluted compounds in 2- or 3-fold dilutions in 384-well format. For single agent dose response curves, the master plates consisted of 9 individual compounds at 12 concentrations in 2- or 3-fold dilutions. For combination matrices, master plates consisted of individual compounds at 6 or 9 concentrations at 2- or 3-fold dilutions. […] To obtain combination data, two master plates were diluted into the assay plates. […] Thirty microliters of ATPLite (Perkin Elmer) at room temperature was then added to each well. […] Measurements were taken at the top of the well using a luminescence aperture and a read time of 0.1 seconds per well. The percent inhibition (% I) for each well was calculated using the following formula: % I=[(avg. untreated wells-treated well)/(avg. untreated wells)]×100. […] Negative inhibition values result from local variations in treated wells as compared to untreated wells. […] The uncertainty of each fitted parameter was estimated from the range over which the change in reduced chi-squared was less than one, or less than minimum reduced chi-squared if that minimum exceeded one, to allow for underestimated σI errors. Single agent curve data were used to define a dilution series for each compound to be used for combination screening in a 6×6 matrix format. […] The Loewe additivity model was used to quantify combination effects. […] A “Synergy Score” was also used, where the Synergy Score S=log fX log fY ΣIdata(Idata-ILoewe), summed over all non-single-agent concentration pairs, and where log fX,Y is the natural logarithm of the dilution factors used for each single agent. This effectively calculates a volume between the measured and Loewe additive response surfaces, weighted towards high inhibition and corrected for varying dilution factors. An uncertainty σS was calculated for each synergy score, based on the measured errors for the Idata values and standard error propagation.

[2] = tested on: H929 multiple myeloma cell line; assay: Anti-proliferation assay (ATPLite, 72 h); format: cell-based, human; design: key: S = lnfX·lnfY·ΣIdata(Idata−ILoewe), volume over Loewe additivity; details: for synergy (score), PDEi × HE-NECA: 6×6 cross of PDE inhibitor or PDE inhibitor mixture with HE-NECA
Experimental: as §1

[3] = tested on: RPMI-8226 multiple myeloma cell line; assay: Anti-proliferation assay (ATPLite, 72 h); format: cell-based, human; design: key: S = lnfX·lnfY·ΣIdata(Idata−ILoewe), volume over Loewe additivity
Experimental: as §1

[4] = tested on: human multiple myeloma cells (MM.1S); assay: Anti-proliferation assay (ATPLite, 72 h); format: cell-based; design: key to synergy score / synergy (score), PDEi × HE-NECA: S = lnfX·lnfY·ΣIdata(Idata−ILoewe), volume over Loewe additivity; details: for synergy (score), PDEi × HE-NECA: 6×6 cross of PDE inhibitor or PDE inhibitor mixture with HE-NECA
Experimental: as §1

[5] = tested on: phosphodiesterase (PDE) types; details: PDE type(s) in brackets after the name; cited from earlier work
[6] = in combination with adenosine receptor agonist CGS-21680, MM.1R
[7] = in combination with adenosine receptor agonist regadenoson, MM.1R
[8] = PDE inhibitor crossed with (S) ENBA, H929
[9] = PDE inhibitor crossed with ADAC, H929
[10] = PDE inhibitor crossed with Chloro-IB-MECA, H929
[11] = PDE inhibitor crossed with HE-NECA, H929
[12] = in combination with adenosine receptor agonist CGS-21680, H929
[13] = in combination with adenosine receptor agonist HE-NECA, H929
[14] = in combination with adenosine receptor agonist regadenoson, H929
[15] = in combination with adenosine receptor agonist CGS-21680, RPMI 8226
[16] = in combination with adenosine receptor agonist HE-NECA, RPMI-8226
[17] = in combination with adenosine receptor agonist regadenoson, RPMI 8226
[18] = PDE inhibitor crossed with (S) ENBA, MM.1S
[19] = PDE inhibitor crossed with ADAC, MM.1S
[20] = PDE inhibitor crossed with Chloro-IB-MECA, MM.1S
[21] = PDE inhibitor crossed with HE-NECA, MM.1S
[22] = in combination with adenosine receptor agonist CGS-21680, MM.1S
[23] = in combination with adenosine receptor agonist HE-NECA, MM.1S
[24] = in combination with adenosine receptor agonist regadenoson, MM.1S
[25] = in combination with adenosine receptor agonist ADAC, MM.1R
[26] = in combination with adenosine receptor agonist ADAC, H929
[27] = in combination with adenosine receptor agonist ADAC, RPMI-8226
[28] = in combination with adenosine receptor agonist ADAC, MM.1S

| Structure (SMILES) | synergy score [1, 6] | synergy score [1, 7] | synergy score [2, 8] | synergy score [2, 9] | synergy score [2, 10] | synergy score [2, 11] | synergy score [2, 12] | synergy score [2, 13] | synergy score [2, 14] | synergy score [3, 15] | synergy score [3, 16] | synergy score [3, 17] | synergy score [4, 18] | synergy score [4, 19] | synergy score [4, 20] | synergy score [4, 21] | synergy score [4, 22] | synergy score [4, 23] | synergy score [4, 24] | PDE inhibitors (specificity) [5] | other results |
| --- | --- | --- | --- | --- | --- | --- | --- | --- | --- | --- | --- | --- | --- | --- | --- | --- | --- | --- | --- | --- | --- |
| COc1ccc(Cc2nn3c([C@@H](CCCc4ccccc4)[C@@H](C)O)nc(C)c3c(=O)[nH]2)cc1OC [BAY 60-7550, 2-(3,4-dimethoxybenzyl)-7-[(1R)-1-[(1R)-1-hydroxyethyl]-4-phenylbutyl]-5-methylimidazo[5,1-f][1,2,4]triazin-4(3H)-one] | 4.59 | 3.07 | 1.07 | 0.55 | 0.74 | 3.71 | 3.86 | 1.933 | 1.89 | 0.76 | 0.7784 | 0.98 | 2.84 | 0.85 | 0.86 | 3.8 | 3.85 | 2.364 | 0.91 | BAY 60-7550 (2) | synergy (score), PDEi × HE-NECA ([2]; H929): 1.68; synergy (score), PDEi × HE-NECA ([4]; MM.1S): 1.64; inhibition at 0.7375 µM ([4]; Homo sapiens, MM1.S, BAY 60-7550 0.7375 μM, HE-NECA conc. (nM), read-out: Percent inhibition of ATP in MM.1S cells): -9.4%; inhibition at 1.475 µM ([4]; Homo sapiens, MM1.S, BAY 60-7550 1.475 μM, HE-NECA conc. (nM), read-out: Percent inhibition of ATP in MM.1S cells): -3.6%; inhibition at 2.95 µM ([4]; Homo sapiens, MM1.S, BAY 60-7550 2.95 μM, HE-NECA conc. (nM), read-out: Percent inhibition of ATP in MM.1S cells): 4%; inhibition at 5.9 µM ([4]; Homo sapiens, MM1.S, BAY 60-7550 5.9 μM, HE-NECA conc. (nM), read-out: Percent inhibition of ATP in MM.1S cells): 6%; inhibition at 11.8 µM ([4]; Homo sapiens, MM1.S, BAY 60-7550 11.8 μM, HE-NECA conc. (nM), read-out: Percent inhibition of ATP in MM.1S cells): 13% |
| CCCCOc1cc(CC2CNC(=O)N2)ccc1OC (centres unmarked) [RO-20-1724, 4-(3-butoxy-4-methoxybenzyl)-2-imidazolidinone] | – | – | 0.09 | 1.11 | 1.14 | 2.51 | – | – | – | – | – | – | 0.73 | 1.71 | 1.6 | 3.58 | – | – | – | RO-20-1724 (4) | synergy score [1, 25]: 3.42; synergy score [2, 26]: 1.1; synergy score [3, 27]: 0.51; inhibition at 2.28 µM ([4]; Homo sapiens, MM1.S, RO-20-1724 2.28 μM, HE-NECA conc. (nM), read-out: Percent inhibition of ATP in MM.1S cells): 2.3%; inhibition at 4.55 µM ([4]; Homo sapiens, MM1.S, RO-20-1724 4.55 μM, HE-NECA conc. (nM), read-out: Percent inhibition of ATP in MM.1S cells): 11%; inhibition at 18.2 µM ([4]; Homo sapiens, MM1.S, RO-20-1724 18.2 μM, HE-NECA conc. (nM), read-out: Percent inhibition of ATP in MM.1S cells): 10%; inhibition at 36.4 µM ([4]; Homo sapiens, MM1.S, RO-20-1724 36.4 μM, HE-NECA conc. (nM), read-out: Percent inhibition of ATP in MM.1S cells): 1.4%; synergy score [4, 28]: 1.71 |
| COc1ccc(C2CNC(=O)C2)cc1OC1CCCC1 (centres unmarked) [Rolipram, 4-(3-cyclopentyloxy-4-methoxyphenyl)-2-pyrrolidone] | – | – | 0.46 | 1.11 | 0.74 | 1.09 | – | 1.089 | – | – | 0.2845 | – | 0.73 | 1.15 | 1.11 | 1.08 | – | 1.076 | – | Rolipram (4) | synergy score [1, 25]: 4.105; synergy score [2, 26]: 1.114; synergy score [3, 27]: 0.4277; synergy score [4, 28]: 1.147 |
| Cc1ccc([N+](=O)[O-])cc1S(=O)(=O)N(C)C [BRL-50481, 3-(N,N-dimethylsulfonamido)-4-methyl-nitrobenzene] | 1.22 | 1.09 | 0.26 | – | 0.34 | 0.23 | 0.34 | 0.193 | 0.19 | 0.19 | 0.147 | 0.39 | 1.22 | – | 1.47 | 1.41 | 1.78 | 1.38 | 0.82 | BRL-50481(7) | – |
| O=C1CCc2cc(OCCCCc3nnnn3C3CCCCC3)ccc2N1 [Cilostazol, 6-[4-(1-cyclohexyl-1H-tetrazol-5-yl)butoxy]-3,4-dihydro-2(1H)-quinolinone] | 1.57 | 0.76 | 0.4 | 0.36 | 0.46 | 1.21 | 1.12 | 0.6849 | 1.34 | 0.37 | 0.2486 | 0.12 | 1.73 | 0.89 | 0.75 | 3.50 | 4.09 | 1.849 | 1.85 | Cilostazol (3) | – |
| CN(C(=O)CCCOc1ccc2[nH]c(=O)ccc2c1)C1CCCCC1 [Cilostamide, N-cyclohexyl-4-((1,2-dihydro-2-oxo-6-quinolinyl)oxy)-N-methyl-butanamide] | – | – | 1.17 | – | 0.65 | 0.28 | – | 1.67 | – | – | 0.2381 | – | – | – | 1.1 | 0.49 | – | 1.637 | – | Cilostamide (3) | synergy score ([1]; in combination with adenosine receptor agonist HE-NECA, MM.1R): 1.692; synergy (score), PDEi × HE-NECA ([2]; H929): 0.56; synergy (score), PDEi × HE-NECA ([4]; MM.1S): 1.02 |
